23 compounds from PubChem BioAssay (NCI) can be followed below.

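96-well plates; 48 h exposure; 5 concentrations. Endpoints by linear interpolation between flanking doses. Not reached: highest tested concentration assigned. Here, GI50 denotes the concentration required for 50% inhibition of growth. TGI: total growth inhibition.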

The first assay relates to RXF 393 renal. The assay is described as follows: growth of human tumour cells (NCI), 48 h.
As to `CSc1ccc(C2OC(=O)c3ccccc32)c2ccccc12` (stereo not given), the TGI is > 100 µM.

Regarding `CCCCCCCCN=C(N)c1ccc(N2CCN(c3ccc(C(N)=NCCCCCCCC)cc3)CC2)cc1`, the GI50 is 1.13 µM and the TGI was found to be 4.49 µM.

For `CCCCC(CC)CN=C(N)NC(N)=NCCCCCCN=C(N)NC(N)=NCC(CC)CCCC` (stereo not given), the GI50 was 2.27 µM and the TGI worked out at 6.43 µM.

As for `COc1cc(OC(C)=O)cc2c(OC(C)=O)ccc(OC(C)=O)c12`, the TGI is > 100 µM.

For the compound `Nc1ccccc1C#C/C=C\C#Cc1cccs1`, the GI50 was 33.8 µM and the TGI is > 83.9 µM.

As for `COc1ccc(-c2ccc(/C=N/n3c(COc4ccc(Cl)cc4Cl)nn(CN4CCOCC4)c3=S)o2)c([N+](=O)[O-])c1`, the GI50 is 24.3 µM and the TGI was determined as 88.9 µM.

Regarding `O=C(O)/C=C\C(=O)N1C/C(=C\c2ccccc2Cl)C(=O)/C(=C/c2ccccc2Cl)C1`, the GI50 is 1.84 µM and the TGI amounted to 3.36 µM.

Take `COc1ccc(OC)c(/C=C2\SC(=S)NC2=O)c1`: the GI50 is 18.4 µM and the TGI amounted to 64.8 µM.

In the case of `COc1cc2c(c(OC)c1)C1c3ccccc3NC(=O)N1CC2` (stereo not given), the GI50 was 2.38 µM and the TGI was determined as 5.6 µM.

The test system of another assay is SF-268 CNS. In words: growth of human tumour cells (NCI), 48 h.
In the case of `COC(=O)C(=O)C1(CCC(C)=O)c2ccccc2-c2c(C)ccc(C)c21` (stereo not given), the TGI was > 100 µM.

Consider `O=C(/C=C/c1ccccc1)c1cc(Br)ccc1O`, for which the TGI is 34 µM.

Turning to `COc1ccc2nc(-c3cccs3)cc(C(O)CN3CCSCC3)c2c1` (stereo not given), the TGI is > 100 µM.

In the case of `O=C(CN1CCOCC1)Nc1nc(-c2ccc(Cl)cc2)cs1`, the TGI is > 100 µM.

In the case of `CC1=C(Oc2ccccc2)C(CCC(=O)O)c2c(O)cc(Cl)c(O)c21` (stereo not given), the TGI was > 100 µM.

As for `CC(C)[C@H]1CO[C@]2(C)[C@@H]3CN(Cc4ccccc4)C[C@@H]3C(=O)N12`, the TGI was > 100 µM.

On to `CC1=Nc2ccccc2S/C1=C(/C)NNC(=O)C(N)=O`, for which the TGI is > 100 µM.

For `COc1ccc2c(c1)/C(=C\c1c(C)nc3sccn13)C(=O)N2`, the GI50 was 15.7 µM and the TGI was > 100 µM.

Regarding `CSc1ccc(C2OC(=O)c3ccccc32)c2ccccc12` (stereo not given), the TGI is > 100 µM.

With `C#CCOCn1cnc2c(Cl)ncnc21`, the TGI is > 100 µM.

Turning to `Oc1cccc2ccc(N/N=C/c3cc(CN4CCCCC4)c(O)c4ncccc34)nc12`, the GI50 was 0.0635 µM and the TGI was found to be 13.4 µM.

`CC1SC2=NC3=C(c4ccccc4C3=O)C(c3ccc(F)cc3)N2C1=O` (stereo not given): the TGI is > 100 µM.

`CC(=O)OCC1OC(OC2C(CSC3OC(COC(C)=O)C(OC(C)=O)C(OC(C)=O)C3OC(C)=O)OC(OC(C)=O)C(OC(C)=O)C2OC(C)=O)C(OC(C)=O)C(OC(C)=O)C1OC(C)=O` (stereo not given): the TGI was > 100 µM.

In the case of `CCCCCCCCN=C(N)c1ccc(N2CCN(c3ccc(C(N)=NCCCCCCCC)cc3)CC2)cc1`, the GI50 was 1.85 µM and the TGI stood at 5.91 µM.

For `CCCCC(CC)CN=C(N)NC(N)=NCCCCCCN=C(N)NC(N)=NCC(CC)CCCC` (stereo not given), the GI50 is 1.63 µM and the TGI was 3.09 µM.

As to `CC1C=C(OC(=O)c2ccccc2)C(=O)C(n2cc(F)c(=O)[nH]c2=O)O1` (stereo not given), the TGI is > 100 µM.

Regarding `COc1cc(OC(C)=O)cc2c(OC(C)=O)ccc(OC(C)=O)c12`, the TGI is > 100 µM.

For `Nc1ccccc1C#C/C=C\C#Cc1cccs1`, the GI50 was 4.26 µM and the TGI is 34.9 µM.

With `COc1ccc(-c2ccc(/C=N/n3c(COc4ccc(Cl)cc4Cl)nn(CN4CCOCC4)c3=S)o2)c([N+](=O)[O-])c1`, the GI50 was 28.6 µM and the TGI was > 100 µM.

As to `O=C(O)/C=C\C(=O)N1C/C(=C\c2ccccc2Cl)C(=O)/C(=C/c2ccccc2Cl)C1`, the GI50 was 1.67 µM and the TGI worked out at 3.54 µM.

Turning to `COc1ccc(OC)c(/C=C2\SC(=S)NC2=O)c1`, the GI50 is 31.4 µM and the TGI is > 100 µM.

For `COc1cc2c(c(OC)c1)C1c3ccccc3NC(=O)N1CC2` (stereo not given), the GI50 is 7.02 µM and the TGI is > 100 µM.

A further assay deals with SF-295 CNS. The assay is described as follows: growth of human tumour cells (NCI), 48 h.
In the case of `COC(=O)C(=O)C1(CCC(C)=O)c2ccccc2-c2c(C)ccc(C)c21` (stereo not given), the TGI was > 100 µM.

Compound `O=C(/C=C/c1ccccc1)c1cc(Br)ccc1O` showed a TGI of 31.5 µM.

For the compound `COc1ccc2nc(-c3cccs3)cc(C(O)CN3CCSCC3)c2c1` (stereo not given), the TGI is > 100 µM.

As to `O=C(CN1CCOCC1)Nc1nc(-c2ccc(Cl)cc2)cs1`, the TGI was > 100 µM.

`CC1=C(Oc2ccccc2)C(CCC(=O)O)c2c(O)cc(Cl)c(O)c21` (stereo not given): the TGI is > 100 µM.

Turning to `CC(C)[C@H]1CO[C@]2(C)[C@@H]3CN(Cc4ccccc4)C[C@@H]3C(=O)N12`, the TGI is > 100 µM.

For the compound `CC1=Nc2ccccc2S/C1=C(/C)NNC(=O)C(N)=O`, the TGI was > 100 µM.

On to `COc1ccc2c(c1)/C(=C\c1c(C)nc3sccn13)C(=O)N2`, for which the GI50 is < 0.0466 µM.

With `CSc1ccc(C2OC(=O)c3ccccc32)c2ccccc12` (stereo not given), the TGI is > 100 µM.

With `C#CCOCn1cnc2c(Cl)ncnc21`, the TGI is > 100 µM.

As to `Oc1cccc2ccc(N/N=C/c3cc(CN4CCCCC4)c(O)c4ncccc34)nc12`, the GI50 was 0.0686 µM and the TGI stood at 3.07 µM.

Turning to `COc1ccc(-c2n/c(=C\c3c(O)[nH]c4ccc(OC)cc34)cc3c2=Nc2ccccc2-3)cc1`, the GI50 was 3.9 µM and the TGI amounted to 24.1 µM.

For the compound `CC1SC2=NC3=C(c4ccccc4C3=O)C(c3ccc(F)cc3)N2C1=O` (stereo not given), the TGI was > 100 µM.

For `CC(=O)OCC1OC(OC2C(CSC3OC(COC(C)=O)C(OC(C)=O)C(OC(C)=O)C3OC(C)=O)OC(OC(C)=O)C(OC(C)=O)C2OC(C)=O)C(OC(C)=O)C(OC(C)=O)C1OC(C)=O` (stereo not given), the TGI was > 100 µM.

`CCCCCCCCN=C(N)c1ccc(N2CCN(c3ccc(C(N)=NCCCCCCCC)cc3)CC2)cc1`: the GI50 is 1.1 µM and the TGI was found to be 2.79 µM.
